This is an account of results in patent US20230248814A1, “COMPOSITIONS AND METHODS FOR TREATING MERKEL CELL CARCINOMA (MCC) USING HLA CLASS I SPECIFIC EPITOPES” (The Broad Institute, Inc., priority 2020, published 2023).

One assay deals with MCC cell lines. The assay is described as follows: HLA-I immunopeptidome (LC-MS/MS) of MCC cell lines at baseline and after IFN-γ. The assay is classed as cell-based, human. Conditions: for increase in abundance of class I bound peptides (median): IFN-γ stimulation. As to the method: Immunoprecipitation and mass spectrometry analysis, and peptide identification. Up to 40 million or 0.2 g of MCC cells were immunoprecipitated. Briefly, MCC cells were harvested and lysed in ice-cold lysis buffer containing […] (pH 8.0), 1 mM EDTA (pH 8.0), 0.1 M sodium chloride, Triton X-100, 0.06 M octyl β-d-glucopyranoside, 100 U/mL DNAse I, 1 mM phenylmethanesulfonyl fluoride (all from Sigma Aldrich), and protease inhibitor cocktail (Roche Diagnostics). Cell lysate was centrifuged at 12,700 rpm at 4° C. for 22 min. Lysate supernatant was coupled with Gammabind Plus sepharose beads (GE Healthcare) and incubated with 10 µg of HLA-I antibody (Clone W6/32, Santa Cruz Biotechnologies) at 4° C. under rotary agitation for 3 h. After incubation, the lysate-bead-antibody mixture was briefly centrifuged and the supernatant was discarded. Beads were washed with lysis buffer, consisting of wash buffer containing 40 mM Tris (pH 8.0), 1 mM EDTA (pH 8.0), 0.1 M sodium chloride, 0.06 M octyl β-d-glucopyranoside, and 20 mM Tris buffer, without protease inhibitors. Gel loading tips (Fisherbrand) were used to remove as much fluid from beads as possible. Peptides of up to three immunoprecipitations were combined, acid eluted, and analyzed using LC/MS-MS as described previously (35, 82). Briefly, peptides were resuspended in 3% acetonitrile with 5% formic acid and loaded onto an analytical column (20-30 cm with 1.9 µm C18 Reprosil beads, Dr. Maisch HPLC GmbH);, packed in-house). Peptides were eluted in a 6-30% gradient (EasyLC 1000 or 1200, Thermo Fisher Scientific) and analyzed on a QExactive Plus, Fusion Lumos, or Orbitrap Exploris 480 (Thermo Fisher Scientific). For Lumos measurements, peptides were also subjected to fragmentation if they were singly charged. […] Fractions were analyzed on a Fusion Lumos or Orbitrap Exploris 480 equipped with a FAIMSpro interface (83).
Mass spectra were interpreted using Spectrum Mill software package v7.1 pre-Release (Broad Institute, Cambridge, MA). […] MS/MS spectra were searched against a protein sequence database that contained 90,904 entries, including all UCSC Genome Browser genes with hg19 annotation of the genome and its protein coding transcripts (52,788 entries), common human virus sequences (30,181 entries), recurrently mutated proteins observed in tumors from 26 tissues (4,595 entries), 264 common laboratory contaminants as well as protein sequences containing somatic mutations detected in MCC cell lines (3,076 entries). […]

The test system of assay [1] is MCC lines. The assay is described as follows: RNA-seq of class I antigen presentation genes in MCC lines before and after IFN-γ. The assay is classed as cell-based, human. The following applies: IFN-γ treatment vs baseline. How it is done:
RNA sequencing and analysis. For samples from the MCC tumors and newly generated cell lines, RNA was first assessed for quality using the Agilent Bioanalyzer (DV200 metric). 100 ng of RNA were used as the input for first strand cDNA synthesis using Superscript III reverse transcriptase and Illumina’s TruSeq RNA Access Sample Prep Kit. Synthesis of the second strand of cDNA was followed by indexed adapter ligation with UMI (unique molecular index) adaptors. Subsequent PCR amplification enriched for adapted fragments. Amplified libraries were quantified, normalized, pooled, and hybridized with exome targeting oligos. Following hybridization, bead clean-up, elution, and PCR was performed to prepare library pools for sequencing on Illumina flowcell lanes. Transcriptomes were sequenced to a coverage of at least 50 million reads in pairs.
Gene counts were obtained from BAM files using featureCounts version 2.0.0 (74). Very lowly expressed genes with average count across samples less than 1 were excluded from analysis. […]
Differential expression analysis was carried out between IFN-γ plus and minus samples (adjusting for viral status as a covariate) using the negative binomial GLM Wald test of DESeq2, where significance was assessed using the p-values adjusted for multiple comparisons under default settings. […]

The subject of the next assay is MCC-301 cell line. The assay is described as follows: Flow cytometry assessment of HLA-DR expression after IFN-γ. The format is cell-based, human. How it is done:
(§1) Flow cytometry. Cells were dissociated with Versene and incubated with 5 µL Human TruStain FcX (Fc Receptor Blocking Solution; Biolegend # 422302) per million cells in 100 µL at room temperature for 10 min. Fluorophore-conjugated antibodies or respective isotype controls were added and incubated for another 30 min at 4° C. Cells were then washed once with PBS and resuspended in PBS or 4% paraformaldehyde and analyzed on an LSR Fortessa cytometer. For HLA-I and HLA-II detection, the following antibodies were used: HLA-ABC (W6/32 clone) conjugated to PE (BioLegend # 311406), APC (BioLegend # 311410), or AF647 (Santa Cruz Biotechnology # sc32235 AF647), and HLA-DR-FITC (BioLegend # 307604).
Background: In flow cytometry, cells or beads pass a laser one at a time.

Assay [2] deals with MCC lines. The assay is described as follows: Flow cytometry for HLA-I surface expression in MCC lines after interferon treatment. The format is cell-based, human. How it is done: as §1
In assay [3] the test system is advanced hormone refractory prostate cancer patients. The following applies: personalized vaccination combined with low dose estramustine; cited from earlier work.
Assay [4] deals with PBMCs from patient MCC-367. The assay is described as follows: IFN-γ ELISpot with autologous PBMCs of patient MCC-367. The following applies: 10 ug/ml peptide. The assay is classed as cell-based, human. As to the method:
ELISpot. Matching patient peripheral blood mononuclear cells (PBMCs) from patient MCC-367 were thawed, and 10^7 cells per well were seeded in 24 well plates overnight. Cells were stimulated with 10 ug/ml of the LT antigen peptide […] (SEQ ID NO:1) (identified in the MCC-367 HLA peptidome, FIG. 3F) in complete DMEM supplemented with 10% Human serum and 20 ng/ml IL-7 (PeproTech). After 3 days of stimulation, cells were supplemented with 20 units/mL IL-2 (PeproTech). After 10 days of stimulation, cells were cytokine deprived overnight. 50,000 cells per well were stimulated in an IFN- γ ELISpot assay with 10 ug/ml of the […] (SEQ ID NO:1) peptide. DMSO and an HIV-GAG peptide were used as negative controls. CEF (Mabtech) and PHA (Sigma Aldrich) were used as positive controls (not shown). ELISpot and T cell culture methods were described in detail previously (23, 86).

The subject of the next assay is healthy human volunteers. Conditions: one single s.c. administration; 8 subjects vs 4 placebo; cited from earlier work.
For assay [5], the system named is ovarian carcinoma patients. The following applies: poly-ICLC with NY-ESO-1 peptide vaccine and Montanide; cited from earlier work.
Another assay has as its target USP7 (Homo sapiens, UniProt Q93009). The following applies: cited from earlier work.
The mark [6] stands for this setting: IFN-γ, 8 IFN-γ-inducible MCC lines.

“Also recorded” adds a separate entry of the source. Bounds are passed on as bounds.

Chain of USP7 (Q93009 whole entry): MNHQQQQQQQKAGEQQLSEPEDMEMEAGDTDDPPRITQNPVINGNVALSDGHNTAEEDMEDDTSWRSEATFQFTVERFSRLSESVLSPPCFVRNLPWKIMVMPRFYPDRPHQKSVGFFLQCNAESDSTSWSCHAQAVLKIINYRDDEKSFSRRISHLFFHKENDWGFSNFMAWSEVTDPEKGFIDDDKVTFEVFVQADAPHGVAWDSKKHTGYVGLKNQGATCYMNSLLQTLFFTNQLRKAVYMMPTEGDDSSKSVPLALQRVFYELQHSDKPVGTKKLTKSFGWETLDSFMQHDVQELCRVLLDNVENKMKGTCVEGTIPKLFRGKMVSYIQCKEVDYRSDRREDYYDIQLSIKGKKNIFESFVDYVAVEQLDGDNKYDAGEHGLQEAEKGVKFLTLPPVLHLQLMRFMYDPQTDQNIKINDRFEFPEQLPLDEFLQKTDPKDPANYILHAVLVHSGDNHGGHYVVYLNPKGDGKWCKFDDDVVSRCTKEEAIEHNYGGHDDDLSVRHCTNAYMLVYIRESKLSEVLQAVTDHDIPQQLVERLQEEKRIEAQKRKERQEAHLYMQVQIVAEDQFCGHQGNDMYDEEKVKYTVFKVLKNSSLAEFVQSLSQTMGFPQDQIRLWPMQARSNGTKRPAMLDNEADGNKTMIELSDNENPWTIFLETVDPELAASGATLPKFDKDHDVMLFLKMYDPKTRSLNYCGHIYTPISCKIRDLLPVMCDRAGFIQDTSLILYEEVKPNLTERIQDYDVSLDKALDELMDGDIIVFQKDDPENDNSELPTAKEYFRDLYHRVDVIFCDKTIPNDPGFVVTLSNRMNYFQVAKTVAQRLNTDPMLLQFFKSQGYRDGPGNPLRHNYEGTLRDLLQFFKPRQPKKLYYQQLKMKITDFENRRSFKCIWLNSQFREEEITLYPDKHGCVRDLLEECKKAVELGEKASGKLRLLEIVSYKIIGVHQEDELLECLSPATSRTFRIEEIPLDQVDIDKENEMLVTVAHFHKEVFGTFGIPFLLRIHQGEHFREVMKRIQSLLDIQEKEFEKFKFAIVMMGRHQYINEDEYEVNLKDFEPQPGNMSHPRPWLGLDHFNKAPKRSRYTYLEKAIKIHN

Take IFN-γ: known inducer of HLA-I: in the assay on MCC cell lines (across 4 cell lines), the “increase in abundance of class I bound peptides (median)” value is 25 fold. Also, the “increase in abundance of class I bound peptides (median)” value with MCC cell lines (across 7 cell lines, comparable input material) turned out to be 12 fold. The “change in frequencies of peptides mapping to each HLA allele” value in the assay with MCC cell lines (cell lines with vs without IFN-γ) is “increase in HLA-B-presented peptides”. Also, in the assay on MCC lines [1], the “class I gene expression (RNA-seq)” value is “markedly upregulated class I genes; also recorded: markedly upregulated class I gene transcripts”. Also, the HLA-DR expression result with MCC-301 cell line is listed as “inducible HLA-DR expression; also recorded: upregulated HLA-DR expression”. The “HLA-I fold increase in MFI” value in the assay on MCC lines [2] (IFN-γ exposure, MCC-336, -350, -358) is not above 1.15 fold. In the assay on MCC lines [2] (setting [6]), the “HLA I surface expression, fold increase by MFI (median)” value was 5.7 fold and the “HLA I surface expression, fold increase by MFI (range)” value was 2.5 - 12.4 fold. For the same compound, the “response of HLA I surface expression to IFN-γ exposure” value in the assay with MCC lines [2] (MCC-336, -350, -358) was “not responsive”.
Consider `C[C@]12CC[C@@H]3c4ccc(OC(=O)N(CCCl)CCCl)cc4CC[C@H]3[C@@H]1CC[C@@H]2O` [estramustine], for which the “patients with >50% decrease in serum PSA” value in assay [3] is given as 54%.
As for TSDKAIELY, in the assay with MCC cell lines (MCC-367 line, baseline vs IFN-γ), the “detection of the epitope in the HLA-I peptidome” value is “detected only after IFN-γ treatment and not at baseline”. Besides, the “reactivity of autologous T cells (IFN-γ ELISpot)” value in assay [4] is reported as “confirmed reactivity”.
For the compound “Polyinosinic-Polycytidylic Acid-poly-L-lysine Carboxymethylcellulose [poly-ICLC]”, the “differentially expressed genes versus placebo” value with healthy human volunteers was “up to 212 genes”. In addition, the “patients with induction of CD4+ and CD8+ T cell and antibody responses to the peptide” value in [5] is more than 90%.
On to `CN1CCN(CCC(=O)Nc2ccc3c(=O)n(CC4(O)CCN(C(=O)[C@H](CCCNC(=O)c5ccc6c(Cl)c7c(nc6c5)CCCC7)Cc5ccccc5)CC4)cnc3c2)CC1` [XL177B], for which, at USP7, the on-target activity entry is reported as “on-target activity at higher doses” and the “potency relative to XL177A (fold less potent)” value is listed as 500 fold.
